Source: patent US10596296B2, “Heparan sulphates” (Agency for Science, Technology and Research, priority 2014, dated 2020)

Assays:
[1] = system: chondrogenic differentiation of hMSCs; test: Alcian blue staining of chondrogenic micromass pellets; type: cell-based, human; conditions: 21 days; 1 ng/mL TGF-β1 with 10 μg/mL GAG
Description: (§1) In order to assess the effects of HS16+ve on the chondrogenic differentiation of hMSCs in vitro, it was first necessary to establish the effects of TGF-β1 alone. Chondrogenic differentiation was carried out using a modified micromass culture system. [Zhang, L., et al., Chondrogenic differentiation of human mesenchymal stem cells: a comparison between micromass and pellet culture systems. Biotechnol Lett, 2010. 32(9): p. 1339-1346.]. Briefly, passage 4 hMSCs were harvested and resuspended in chemically defined chondrogenic media (PT-3003, Lonza, MD, USA) at 2×10^7 cells/mL. Droplets of 12.5 μL were then seeded into the middle of each well in a 24-well plate and left to adhere at 37° C. for 2 h, after which, 500 μL of chondrogenic media supplemented with either 1 or 10 ng/mL of TGF-β1 (100-210, PeproTech) alone or with either 5 or 10 μg/mL of heparin (Sigma-Aldrich), porcine mucosal HS (HSPM) (Celsus laboratories), HS16+ve or HS16-ve was added to each well. The cell droplets coalesced into spherical masses after 24 h. Media was changed every 3 days and the micromasses harvested on days 3, 7, 14 and 21.

LTGF-β1 = LTGF-β1 (Homo sapiens, UniProt P01137); conditions: reference (56); cited from earlier work
Chain of LTGF-β1 (P01137 279-390 limits assumed): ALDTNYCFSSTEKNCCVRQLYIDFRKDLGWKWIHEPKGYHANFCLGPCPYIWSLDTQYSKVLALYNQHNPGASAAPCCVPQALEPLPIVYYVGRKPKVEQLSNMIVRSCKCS
Chain of LTGF-β1 (P01137 30-278 limits assumed): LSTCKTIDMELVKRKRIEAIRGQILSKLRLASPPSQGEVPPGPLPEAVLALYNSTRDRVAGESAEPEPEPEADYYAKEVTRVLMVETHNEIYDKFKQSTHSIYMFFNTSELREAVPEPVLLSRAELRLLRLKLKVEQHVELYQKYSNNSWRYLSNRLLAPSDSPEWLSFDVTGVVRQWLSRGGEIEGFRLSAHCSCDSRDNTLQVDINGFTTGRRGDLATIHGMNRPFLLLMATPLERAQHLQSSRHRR

[2] = system: TGF-β1 signaling (pSMAD2, pSMAD3) in hMSCs; test: Western blotting of pSMAD2/pSMAD3 in hMSCs treated with TGF-β1 and GAG; type: cell-based, human
Description: Primary hMSCs (Lonza) were isolated from the bone marrow mononuclear cells of a young healthy adult human donor by plastic adherence and characterized as previously described (30,31). The adherent cells were maintained in a basal media consisting of DMEM-low glucose (1000 mg/l, DMEM-LG) supplemented with 10% fetal calf serum, 100 U/ml penicillin, 100 μg/ml streptomycin and 2 mM L-glutamine, and cultured under standard conditions at 37° C. and 5% CO2 in a humidified atmosphere. Media replacement was every three days. Cells were detached with 0.125% trypsin/Versene (pH 7.0) upon reaching 75-80% confluence, and re-plated at a density of 3,000 cells/cm^2 under the same culture conditions. All experiments were carried out with cells at passage 5.
Human MSCs were cultured in 6-well plates in basal media for 24 h at a density of 10,000 cells/cm^2. TGF-β1 treatments were then prepared at either 1 ng/ml or 5 ng/ml alone or in the presence of either 10 μg/ml or 40 μg/ml of full length heparin, or 1 ng/ml of TGF-β1 with 10 μg/ml size-fractionated or selectively desulfated heparin, HS^PM, HS16+ or HS16−, and incubated at room temperature for 10 min before being added to the cells. Latent TGF-β1 (LTGF-β1) treatments were similarly prepared at 3.3 ng/ml alone or with 10 μg/ml of the various GAGs described above. For inhibitor studies, the cells were pre-treated for 30 min with 10 μM SB431542 (Sigma-Aldrich) or DMSO before treatment with TGF-β1. […] Samples were then immunoblotted with antibodies against SMAD2/3 (#3102, Cell Signaling), phosphorylated SMAD2 (pSMAD2, #3108, Cell Signaling), phosphorylated SMAD3 (pSMAD3, #9520, Cell Signaling) and actin (MAB1501R, Millipore). Densitometry was carried out using Quantity One software (version 4.6.6, Bio-Rad).

[3] = system: chondrogenic differentiation of hMSCs; test: qPCR of chondrogenic micromass pellets (Example 2); type: cell-based, human; conditions: for SOX9 expression / COMP expression: day 3
Description: Total RNA was isolated from chondrogenic micromass pellets using TRIZOL reagent (Life Technologies, CA, USA) according to the manufacturer's protocol. Reverse transcription was carried out on 1 μg RNA using the SuperScript® VILO™ cDNA Synthesis Kit (Life Technologies) following the manufacturer's instructions, with the incubation at 42° C. being carried out for 2 h instead of 1 h. Each qPCR contained 40 ng cDNA, 1 μL TaqMan® primer-probe mix per gene, and 10 μL Taqman® Fast Universal PCR Master Mix (Life Technologies) in a final volume of 20 μL. Thermal cycling conditions were 95° C. for 20 s, followed by 45 cycles of 95° C. for 1 s and 60° C. for 20 s. Each qPCR was run in duplicate and gene expression was normalised to HPRT1 expression to obtain the ΔCt value. The average value of biological triplicates was taken. Chondrogenic micromass pellets cultured in media without GAG or TGF-β1 were used as controls (ΔΔCt). Relative expression levels for each primer set were expressed as fold changes by the 2-ΔΔCt method [Livak, K. J. and T. D. Schmittgen, Analysis of Relative Gene Expression Data Using Real-Time Quantitative PCR and the 2-ΔΔCT Method. Methods, 2001. 25(4): p. 402-408]. The following TaqMan® primer-probe assays (Life technologies) were used:
as §1
Next, hMSCs were differentiated for 21 days in the presence of 1 ng/mL TGF-β1 alone (1 TGF-β1) or in combination with 10 μg/mL of GAG (heparin, HSPM, HS16+ve or HS16−ve) or with 10 ng/mL TGF-β1 (10 TGF-β1) as a positive control.

[4] = 6 h post-treatment, heparin and TGF-β1
[5] = 10 μg/mL heparin with 10 ng/mL TGF-β1

heparin
GAG deposition by Alcian blue staining relative to 1 ng/mL TGF-β1 alone [1]: slight increase in GAG deposition | effect on activation of LTGF-β1 (LTGF-β1): inhibit the activation of LTGF-β1 | pSMAD2 and pSMAD3 levels ([2]; 1 h post treatment, with TGF-β1): saturated | pSMAD2 level relative to equivalent dose of TGF-β1 without heparin [2, 4]: ~1.6 fold | pSMAD3 level relative to equivalent dose of TGF-β1 without heparin [2, 4]: ~1.35 fold | pSMAD levels relative to TGF-β1 alone ([2]; 24 h, heparin and TGF-β1): continued to be greater | pSMAD2 and pSMAD3 signal ([2]; TGF-β1 1 ng/mL with 40 μg/mL heparin, 6 h): unable to elicit the same effect | pSMAD2 and pSMAD3 levels ([2]; TGF-β1 1 ng/ml pre-incubated with 10 μg/ml GAG, 6 h): maintained a stronger pSMAD2 and pSMAD3 signal | pSMAD signal ([2]; TGF-β1 5 ng/mL with 10 or 40 μg/mL heparin, 6 h): neither dose of heparin was able enhance the pSMAD signal beyond that obtained from the growth factor alone | levels of pSMAD2 and pSMAD3 ([2]; heparin alone, no TGF-β1): No discernible levels | COMP expression increase relative to 1 ng/mL TGF-β1 alone ([3]; 21 days, 1 ng/mL TGF-β1 with 10 μg/mL GAG): ~2.5 fold | SOX9 expression ([3]; 5 μg/mL heparin, regardless of the amount of TGF-β1): did not significantly alter | SOX9 expression ([3]; 10 μg/mL heparin on its own): did not affect SOX9 expression | SOX9 expression ([3]; 10 μg/mL heparin with 1 ng/mL TGF-β1): increase the expression of SOX9 | COMP expression [3, 5]: reduced COMP expression levels | SOX9 expression [3, 5]: unable to bring about any change in SOX9 expression | COMP expression ([3]; 5 or 10 μg/mL heparin on their own): slightly reduce | COMP expression ([3]; either dose of heparin with 10 ng/mL TGF-β1): unable to elicit a further increase in COMP expression | COMP expression ([3]; heparin with 1 ng/mL TGF-β1): increase COMP expression levels in a dose dependent manner | Aggrecan expression ([3]; day 21, 1 ng/mL TGF-β1 with 10 μg/mL GAG): similar
